Entries after “also recorded” stand apart in the source; their conditions may differ.
B1: NGF: nerve growth factor, a growth factor that differentiates PC12 cells to neuronal cells (protein, UniProt P01139 122-241, looked up)
Beta-nerve growth factor: SSTHPVFHMGEFSVCDSVSVWVGDKTTATDIKGKEVTVLAEVNINNSVFRQYFFETKCRASNPVESGCRGIDSKHWNSYCTTTHTFVKALTTDEKQAAWRFIRIDTACVCVLSRKATRRG

Tests used:
Assay type in all cases: cell-based, rat
[1] = test system: PC12 cells; experiment: Neuronal outgrowth of PC12 cells, factors in growth medium for 48 hours (Example 12, FIG. 1); conditions: 48 hours in growth medium with factor, 1,3 cGP 1 μM, NGF 50 ng/ml, α glycerophosphate as control
Protocol: (§1) The immortal PC12 cell line is one of the most investigated systems in neuronal differentiation. In the presence of nerve growth factor these cells differentiate to neuronal cells. PC12 cells originated from rat pheochromocytoma were grown as monolayers in Eagle's medium (EM) supplemented with 10% fetal calf serum, 50 μg/ml gentamicin and 5 mM glutamine, in a humidified incubator buffered with 5% CO2, at 37° C. The culture medium is changed every four days and the cells are passaged every eight days and performed confluent monolayers (1.5×10^6 in a 10 cm plate or 10^5 cells per well in 24 wells plate). PC12 cells are originally round cells which, following several days in the presence of nerve growth factor (NGF) process nerves. Upon withdrawal of the NGF, the nerves retract and a process of apoptosis is initiated in the cells.
PC12 cells were grown in culture as explained above, the cells were divided into three groups and different factors were added to the growth medium of each group for 48 hours as follows: • Group A—α glycerophosphate. • Group B—nerve growth factor (NGF) at a concentration of 50 ng/ml. • Group C —1,3 cGP at a concentration of 1 μM.
The rate of neuronal growth in each of the above cultures was monitored and documented by microscopic photographs.

[2] = test system: PC12 cells; experiment: Neural outgrowth of PC12 cells after consecutive seven-day incubation (Example 15, FIG. 3); conditions: PC12 cells incubated for consecutive 7 days; CGs at 0.5 μM
Protocol: as §1
The cells were incubated with the various factors for a consecutive period of seven days. Neural outgrowth was monitored and microscopic photographs were taken following the seven day incubation with the above factors.

[3] = test system: PC12 cells; experiment: Neural outgrowth of PC12 cells after three-hour pulse and wash, photographed on day 7 (Example 14, FIG. 2); conditions: for promotion of neuronal outgrowth (summary statement): PC12 adrenal tumorigenic cells in culture, after a short incubation period; for neural outgrowth (microscopic photographs): PC12 cells pulsed for three hours, washed, grown in growth medium without factor, day 7 after treatment
Protocol: as §1
Cells were grown as described above and divided into groups which were each grown with one of the following:
The above factors were added to the cells for a period of three hours after which they were washed away from the cells. […] The neural outgrowth of the cells was monitored and microscopic photographs were taken on day seven after treatment with the above factors.

[4] = test system: PC12 cells; experiment: Nerve rescue of NGF-differentiated PC12 cells after NGF withdrawal, 14-day culture (Example 19, FIG. 4)
Protocol: as §1
To study nerve rescue by 1,3 cPP, PC12 cells were incubated in tissue culture medium for a period of 14 days. Within this period, the cells were either grown in the presence of nerve growth factor (NGF) for different periods of times or were grown in the presence of 1,3, cPP for various periods of time. Neuronal differentiation and spread was examined in the various cells.

Molecule	neural outgrowth (microscopic photographs) [1]	neural outgrowth (microscopic photographs) [2]	promotion of neuronal outgrowth (summary statement) [3]	neural outgrowth (microscopic photographs) [3]	neural outgrowth (microscopic photographs) ([1]; listed as 1,3 GP)	rescue of the neuronal network from retraction ([4]; PC12 cells 7 days with NGF 50 ng/ml, then 7 days with 2 μM, 4 μM or 6 μM 1,3 cPP)	nerve retraction after NGF withdrawal ([4]; PC12 cells 7 days with NGF 50 ng/ml, then 7 days without NGF)	neuronal differentiation ([4]; PC12 cells grown with NGF 50 ng/ml for full 14 days)
O=P(O)(O)OCC(O)CO (stereo in doubt) [αGP, L-α-glycerophosphate, reference compound]	did not promote neural outgrowth	No neural outgrowth was observed						
O=P1(O)OCC(CO)O1 (centres unmarked) [1,2 cGP, 1,2 cyclic glycerophosphate]		neural outgrowth is observed to different extents	capable of promoting neuronal outgrowth	Neural outgrowth is seen				
O=P1(O)OCC(O)CO1 (centres unmarked) [1,3 cGP, 1,3 cyclic glycerophosphate]	neural outgrowth was clearly seen	neural outgrowth is observed to different extents	capable of promoting neuronal outgrowth	Neural outgrowth is seen	Neuronal outgrowth is clearly seen			
O=P1(O)OCCCO1 [1,3 cPP, 1,3 cyclic propanediol phosphate]		neural outgrowth is observed to different extents		Neural outgrowth is seen		partial to full rescue of the neuronal network		
O=P(O)(O)OC(CO)CO [βGP, β-Glycerophosphate, reference compound]		No neural outgrowth was observed						
phenyl 1,3 cyclic glycerophosphate [phenyl-1,3 cGP]		neural outgrowth is observed to different extents		Neural outgrowth is seen				
phenyl 1,3 cyclic propanediol phosphate [phenyl-1,3 cPP]		neural outgrowth is observed to different extents		Neural outgrowth is seen				
B1	neural outgrowth was clearly seen; also recorded: Neuronal outgrowth is clearly seen	neural outgrowth was seen; also recorded: extensive neural outgrowth is seen		did not promote any nerve generation			complete nerve retraction was observed	full neuronal differentiation
